Values joined by “and” are separate entries in the source; they are usually repeats but may differ in a detail not shown here. Equal entries are not always repeated.

The test system of data set [1] is Oryctolagus sp. The conditions noted are these: subchronic; duration: 13 weeks; inhalation; M; testicular effects.
Data set [2] has as its system Oryctolagus sp. The conditions noted are these: oral.
For data set [3], the system named is Oryctolagus sp. Particulars: M; for NOAEL: inhalation, New Zealand.
The test system of data set [4] is Oryctolagus sp. The conditions noted are these: duration: 7 days, oral, gavage, New Zealand.
The subject of data set [5] is Rattus norvegicus. Particulars: for LD50: acute.
The subject of data set [6] is Oryctolagus sp. Put plainly: LD0; higher = less toxic. Particulars: acute; dermal; occlusive; New Zealand.
The test system of another data set is Cricetulus sp. The conditions noted are these: subchronic; duration: 13 weeks; inhalation; M/F; Hamster; increased hemolysis, abnormal rbc morphology, and increased spleen weight.
The test system of data set [7] is Mus musculus. Particulars: subchronic, inhalation.
Data set [8] relates to Rattus norvegicus. Particulars: subchronic; duration: 13 weeks; inhalation; M/F; increased hemolysis, abnormal rbc morphology, and increased spleen weight.
For data set [9], the system named is Canidae. Particulars: oral, M/F, Beagle.
In data set [10] the test system is Mus musculus. Particulars: chronic, oral, diet, B6C3F1.
Data set [11] relates to Rattus norvegicus. The conditions noted are these: oral, M/F.
Data set [12] deals with Rattus norvegicus. The conditions noted are these: M/F; for NOAEL: chronic, duration: 2 years, oral, diet, neurological.
For data set [13], the system named is Rattus norvegicus. Particulars: oral.
The subject of data set [14] is Homo sapiens. The conditions noted are these: clinical, oral, capsule.
The subject of data set [15] is Canidae. The conditions noted are these: repeat dose other; inhalation; Dog Other.
The subject of another data set is Cavia sp. Particulars: repeat dose other; inhalation.
The subject of data set [16] is Mus musculus.
For data set [17], the system named is Homo sapiens. Particulars: clinical, oral.
Data set [18] relates to Homo sapiens. Particulars: clinical; oral; diet; M; rbc che depression.
For data set [19], the system named is Homo sapiens. Particulars: clinical; duration: 56 days; oral; capsule; M; neurological.
Data set [20] has as its system Rattus norvegicus. The experiment in a line: LD0; higher = less toxic. Particulars: acute.
[21] abbreviates: duration: 12 weeks, Increased hemolysis, increased spleen weight, and impaired compensatory erythropoiesis.
Setting [22] is: duration: 13 weeks, M/F, increased hemolysis, abnormal rbc morphology, and increased spleen weight.
The mark [23] stands for this setting: short-term, duration: 28 days, oral, diet, Fischer 344.

On to `ClCC(Br)CBr` (stereo not given) [1,2-Dibromo-3-chloropropane], for which the LOAEL with Oryctolagus sp. [1] was 9.4 mg/m3; in the data set with Oryctolagus sp. [3] (subchronic, duration: 10 weeks, oral, drinking water, Dutch belted, reproductive) it was 1.88 mg/kg-day. For the same compound, the NOAEL in the data set with Oryctolagus sp. [1] amounted to 0.94 mg/m3; in the data set with Oryctolagus sp. [2] (subchronic, duration: 10 weeks, drinking water, M, Dutch-belted, Endocrine) it was 0.7 mg/kg-day; in the data set on Oryctolagus sp. [3] (chronic, duration: 14 weeks, reproductive), 0.967 mg/m3.

Consider `Nc1ccc([N+](=O)[O-])cc1` [4-Nitrobenzenamine], for which the NOAEL is 125 mg/kg-day in the data set with Oryctolagus sp. [4] (developmental); 125 mg/kg-day in the data set on Oryctolagus sp. [4] (reproduction developmental, generation: F1); less than 3 mg/kg-day in the data set with Rattus norvegicus [5] (reproduction developmental, duration: 90 days, oral, gavage, Sprague-Dawley); 1.5 mg/kg-day with Rattus norvegicus [5] (reproduction developmental, duration: 167 days, oral, gavage, Sprague-Dawley, generation: F0); 9000 mg/kg-day in the data set with Rattus norvegicus [5] (reproduction developmental, duration: 167 days, oral, gavage, Sprague-Dawley, generation: F1). The same compound showed an LD50 in the data set on Rattus norvegicus [5] (oral, gavage, Sprague-Dawley) of 1400 mg/kg. Further, the LD0 in the data set with Oryctolagus sp. [6] is greater than 7940 mg/kg.

As for `[AsH3]` [Arsine], the LOAEL in the data set with Cricetulus sp., in the data set on Mus musculus [7] (setting [21]), with Mus musculus [7] (setting [22]) and in the data set with Rattus norvegicus [8] was 1.6 mg/m3 in each case. Besides, the NOAEL in the data set with Cricetulus sp., with Mus musculus [7] (setting [21]), in the data set on Mus musculus [7] (setting [22]) and in the data set on Rattus norvegicus [8] was 0.08 mg/m3 throughout.

`COC(=O)c1cc(Oc2ccc(Cl)cc2Cl)ccc1[N+](=O)[O-]` [Bifenox] returned an NOAEL in the data set with Canidae [9] (chronic, duration: 52 weeks, capsule, hepatic) of 145 mg/kg-day. The same compound returned an LOAEL with Mus musculus [10] (duration: 2 years, M/F, Urinary) of 7 mg/kg-day.

Consider `Cc1ccc([N+](=O)[O-])cc1N` [C.I. Azoic Diazo Component 12], for which, in the data set with Mus musculus [10] (duration: 78 weeks, F), the LOAEL was 207 mg/kg-day.

As for `CCOP(=S)(OCC)Oc1nc(Cl)c(Cl)cc1Cl` [Chlorpyrifos], the NOEL with Rattus norvegicus [11] (short-term, duration: 28 days, gavage, Wistar, Body Weight Changes: Weight gain decrease + Food Consumption: decrease + Blood Chemistry: T-Cho decrease TG decrease ALP increase Ch E …) was determined as 0.1 mg/kg-day; in the data set on Rattus norvegicus [13] (Hershberger, duration: 10 days, gavage, Sprague-Dawley, inactive + Negative + Negative + anti-androgenic + negative), 2 mg/kg-day; in the data set with Homo sapiens [14] (duration: 20 days, Blood: Decreased cholinesterase activity), 0.03 mg/kg-day. This compound also displayed an NOAEL in the data set with Rattus norvegicus [12] (Sherman Wistar) of 0.1 mg/kg-day. This compound also displayed an LEL in the data set on Rattus norvegicus [13] (uterotrophic, duration: 56 days, Active) of 0.1 mg/kg-day.

For `C#C` [Ethyne], the NOAEL was determined as 852000 mg/m3 in the data set on Canidae [15]; 852000 mg/m3 with Cavia sp.; 852000 mg/m3 with Mus musculus [16] (repeat dose other, inhalation); 852000 mg/m3 with Rattus norvegicus [5] (repeat dose other, inhalation).

In the case of `Oc1ccc(O)cc1` [Hydroquinone], the NOEL in the data set with Rattus norvegicus [11] (subchronic, duration: 13 weeks, gavage, Fischer 344, Deaths + Clinical Observation: Tremors Convulsions + Body Weight Changes: decrease + Absolute Organ Weight: Liver increase + Relative Organ …) turned out to be 25 mg/kg-day. Further, the NOAEL in the data set with Homo sapiens [17] (duration: 5 months, M/F, Hematologic, Urinary) was 4.3 mg/kg-day.

As for `CCOC(=O)CC(SP(=S)(OC)OC)C(=O)OCC` (stereo not given) [Malathion], the LEL in the data set with Homo sapiens [18] stood at 0.34 mg/kg-day. The NOEL was found to be 0.23 mg/kg-day in the data set with Homo sapiens [18] and 0.23 mg/kg-day with Homo sapiens [14] (duration: 47 days, Blood: Hematological effects). Also, the NOAEL with Homo sapiens [19] came to 0.23 mg/kg-day; in the data set on Oryctolagus sp. [3] (acute, duration: 1 days, neurological), 65 mg/m3; in the data set with Rattus norvegicus [12] (Fischer-344), 2 mg/kg-day. In the data set with Rattus norvegicus [12] (subchronic, duration: 13 weeks, inhalation, whole body, Sprague-Dawley, respiratory), the LOAEL was found to be 100 mg/m3.

Regarding `[Cl-].[Rb+]` [Rubidium chloride (RbCl)], the LOAEL in the data set on Homo sapiens [17] (duration: 3 weeks, capsule, F) came out at 5.3 mg/kg-day.

Consider `C[S-].[Na+]` [Sodium thiomethoxide], for which the LD50 was ≥ 75 mg/kg and ≤ 161 mg/kg in the data set on Rattus norvegicus [5] (oral, Sprague-Dawley); 109 mg/kg and ≥ 84 mg/kg and ≤ 146 mg/kg in the data set with Rattus norvegicus [5] (oral, gavage, Sprague-Dawley). The same compound had an LD0 in the data set on Rattus norvegicus [20] (dermal, semiocclusive, Sprague-Dawley) of no less than 400 mg/kg.

`O=P(c1ccccc1)(c1ccccc1)c1ccccc1` [Triphenylphosphine oxide] displayed an LOAEL with Canidae [9] (subchronic, duration: 7 weeks, gavage) of 50 mg/kg-day.

Take `CCCCC(CC)COC(=O)c1ccc(C(=O)OCC(CC)CCCC)c(C(=O)OCC(CC)CCCC)c1` (stereo not given) [Tris(2-ethylhexyl) trimellitate]: the LD50 in the data set with Mus musculus [16] (acute, oral, gavage) was greater than 3200 mg/kg; with Rattus norvegicus [5] (oral, gavage), greater than 3200 mg/kg; in the data set with Rattus norvegicus [5] (oral, gavage, Crj:CD), greater than 2000 mg/kg. Besides, the NOAEL is 1000 mg/kg-day in the data set with Rattus norvegicus [5] (reproduction developmental, duration: 20 days, oral, gavage, Crj:CD, generation: F1); 1000 mg/kg-day with Rattus norvegicus [5] (reproduction developmental, duration: 20 days, oral, gavage, F, Crj:CD); 100 mg/kg-day in the data set on Rattus norvegicus [5] (reproduction developmental, duration: 20 days, oral, gavage, M, Crj:CD); 184 mg/kg-day in the data set on Rattus norvegicus [5] (setting [23]); greater than 1000 mg/kg-day in the data set on Rattus norvegicus [5] (short-term, duration: 28 days, oral, gavage, F, Crj:CD); greater than 1000 mg/kg-day in the data set on Rattus norvegicus [5] (short-term, duration: 28 days, oral, gavage, M, Crj:CD). Also, in the data set on Rattus norvegicus [5] (setting [23]), the LOAEL came to 650 mg/kg-day. The compound also came in with an LD0 in the data set with Rattus norvegicus [20] (inhalation, Crj:CD) of 2600 mg/m3.

With `Cc1ccc(O)cc1` [p-Cresol], the no observed adverse effect level (NOAEL) amounted to 1000 ppm in the data set with Rattus norvegicus [11] (short-term, duration: 28 days, diet, Fischer 344, Clinical Observation: Hunched posture Rough hair coat + Body Weight Changes: Mean body weight decrease + Food Consumption: decrease + …); 50 mg/kg-day with Rattus norvegicus [11] (subchronic, duration: 13 weeks, gavage, Sprague-Dawley, Deaths + Clinical Observation: Lethargy Tremors Convulsions Coma: + Body Weight Changes: Mean body weight decrease, Body weight gain …); 5 mg/kg-day in the data set on Oryctolagus sp. [2] (developmental, duration: 12 days, gavage, F, New Zealand, developmental).

These data come from EPA's ToxValDB 9.5.
